The supplement of paper PMC10307832

Assays:
Assay in all cases: relative viability (nuclei count vs DMSO), 5 days (fraction); higher = more cells survive
[1] = compound: Cc1ccc2nc(NCCN)c3ncc(C)n3c2c1 + CS(=O)(=O)CCNCc1ccc(-c2ccc3ncnc(Nc4ccc(OCc5cccc(F)c5)c(Cl)c4)c3c2)o1 [Lapatinib] (partner 2 µM)
How it was run: (§1)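 Each reported value is a median over duplicate plates. It expresses relative viability: treated-well nuclei count divided by vehicle-well nuclei count. Lung cancer cell lines in 1536-well plates were dosed by pin tool a day after seeding, alone with one drug or with a fixed anchor-drug dose plus five library-drug doses (not always all listed) in √10 steps, and nuclei were counted after 5 days.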

Salubrinal + Palbociclib = compound: O=C(/C=C/c1ccccc1)NC(NC(=S)Nc1cccc2cccnc12)C(Cl)(Cl)Cl [Salubrinal] + CC(=O)c1c(C)c2cnc(Nc3ccc(N4CCNCC4)cn3)nc2n(C2CCCC2)c1=O [Palbociclib] (partner 0.5 µM)
How it was run: as §1

Salubrinal + Luminespib = compound: O=C(/C=C/c1ccccc1)NC(NC(=S)Nc1cccc2cccnc12)C(Cl)(Cl)Cl [Salubrinal] + CCNC(=O)c1noc(-c2cc(C(C)C)c(O)cc2O)c1-c1ccc(CN2CCOCC2)cc1 [Luminespib] (partner 0.01 µM)
How it was run: as §1

Salubrinal + Phenformin = compound: O=C(/C=C/c1ccccc1)NC(NC(=S)Nc1cccc2cccnc12)C(Cl)(Cl)Cl [Salubrinal] + N=C(N)NC(=N)NCCc1ccccc1 [Phenformin] (partner 250 µM)
How it was run: as §1

Row | Cell Line | relative viability ([1]; first compound 0.04 µM) | relative viability ([1]; first compound 0.1265 µM) | relative viability ([1]; first compound 0.4 µM) | relative viability ([1]; first compound 1.265 µM) | relative viability ([1]; first compound 4 µM) | relative viability (Salubrinal + Palbociclib; first compound 0.08 µM) | relative viability (Salubrinal + Palbociclib; first compound 0.253 µM) | relative viability (Salubrinal + Palbociclib; first compound 0.8 µM) | relative viability (Salubrinal + Palbociclib; first compound 2.53 µM) | relative viability (Salubrinal + Palbociclib; first compound 8 µM) | relative viability (Salubrinal + Luminespib; first compound 0.08 µM) | relative viability (Salubrinal + Luminespib; first compound 0.253 µM) | relative viability (Salubrinal + Luminespib; first compound 0.8 µM) | relative viability (Salubrinal + Luminespib; first compound 2.53 µM) | relative viability (Salubrinal + Luminespib; first compound 8 µM) | relative viability (Salubrinal + Phenformin; first compound 0.08 µM) | relative viability (Salubrinal + Phenformin; first compound 0.253 µM) | relative viability (Salubrinal + Phenformin; first compound 0.8 µM) | relative viability (Salubrinal + Phenformin; first compound 2.53 µM) | relative viability (Salubrinal + Phenformin; first compound 8 µM)
1 | LU99A | 1 | 0.944 | 1.06 | 0.957 | 0.986 | 0.419 | 0.425 | 0.458 | 0.388 | 0.447 | 0.234 | 0.264 | 0.293 | 0.243 | 0.248 | 0.921 | 0.916 | 0.992 | 0.906 | 0.896
2 | LXF-289 | 0.956 | 0.882 | 0.894 | 0.873 | 0.902 | 0.678 | 0.478 | 0.633 | 0.578 | 0.578 | 0.74 | 0.595 | 0.569 | 0.727 | 0.643 | 0.542 | 0.451 | 0.555 | 0.504 | 0.502
3 | NCI-H23 | 1.09 | 1.12 | 1.19 | 1.15 | 0.937 | 0.635 | 0.387 | 0.598 | 0.46 | 0.501 | 0.213 | 0.227 | 0.196 | 0.217 | 0.216 | 0.84 | 0.939 | 0.8 | 0.748 | 0.814
4 | NCI-H441 | – | – | – | – | – | 0.222 | 0.189 | 0.313 | 0.23 | 0.201 | 0.312 | 0.39 | 0.393 | 0.338 | 0.385 | 0.939 | 0.855 | 0.892 | 0.755 | 0.72
5 | NCI-H522 | – | – | – | – | – | 1.1 | 1.21 | 0.956 | 0.94 | 1.13 | 1.13 | 0.97 | 1.13 | 1.12 | 1.11 | 0.723 | 0.662 | 0.714 | 0.615 | 0.605
6 | NCI-H596 | 1.12 | 1.11 | 1.31 | 0.962 | 1.05 | – | – | – | – | – | 0.971 | 0.775 | 0.972 | 1.2 | 0.92 | 0.98 | 0.703 | 0.68 | 0.757 | 0.704
7 | NCI-H1299 | 0.957 | 0.935 | 0.954 | 0.911 | 0.809 | – | – | – | – | – | – | – | – | – | – | – | – | – | – | –
8 | NCI-H1563 | 0.963 | 1 | 0.88 | 1.15 | 0.88 | – | – | – | – | – | 0.572 | 0.501 | 0.521 | 0.488 | 0.506 | 0.71 | 0.617 | 0.647 | 0.635 | 0.692
9 | NCI-H1648 | – | – | – | – | – | 0.255 | 0.258 | 0.252 | 0.22 | 0.236 | – | – | – | – | – | – | – | – | – | –
10 | NCI-H1703 | 1.15 | 0.958 | 1.03 | 1.19 | 0.997 | – | – | – | – | – | – | – | – | – | – | – | – | – | – | –
11 | NCI-H2342 | – | – | – | – | – | 0.465 | 0.516 | 0.552 | 0.49 | 0.531 | 0.779 | 0.662 | 0.714 | 0.601 | 0.799 | 0.497 | 0.564 | 0.618 | 0.635 | 0.572
12 | SW 900 | – | – | – | – | – | 0.692 | 0.531 | 0.493 | 0.468 | 0.567 | 0.173 | – | 0.175 | 0.189 | 0.207 | 0.555 | – | 0.656 | 0.607 | 0.676
